How the values were obtained:
Format in all cases: in vivo
[1] = system: velvetleaf (Abutilon theophrasti); assay: Test B postemergence
Outline: (§1)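 Post-treatment, species sat 13–15 days under greenhouse conditions before visual scoring against controls, 0 (no effect) through 100 (complete control). Application preemergence to sown seeds or postemergence at 1- to 4-leaf stage, using a non-phytotoxic solvent/surfactant formulation.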

[2] = system: blackgrass (Alopecurus myosuroides); assay: Test B postemergence
Outline: as §1

[3] = system: giant foxtail (Setaria faberii); assay: Test B postemergence
Outline: as §1

[4] = system: cocklebur (Xanthium strumarium); assay: Test B postemergence
Outline: as §1

[5] = system: lambsquarters (Chenopodium album); assay: Test B postemergence
Outline: as §1

[6] = system: morning glory (Ipomoea hederacea); assay: Test B postemergence
Outline: as §1

[7] = system: pigweed (Amaranthus retroflexus); assay: Test B postemergence
Outline: as §1

[8] = system: crabgrass (Digitaria sanguinalis); assay: Test B postemergence
Outline: as §1

[9] = system: Surinam grass (Brachiaria decumbens); assay: Test B postemergence
Outline: as §1

Sunflower = assay: Test C preemergence; settings: scale 0 to 100
[10] = Rate 500 g/ha, scale 0 to 100, 0 is no effect, 100 is complete control, 13 to 15 days
[11] = Rate 125 g/ha, scale 0 (no effect) to 100 (complete control), 13 to 15 days
[12] = Rate 125 g/ha, scale 0 to 100, 0 no effect, 100 complete control

| Compound | Plant response rating, Velvetleaf [1, 10] | Plant response rating, Blackgrass [2, 11] | Plant response rating, Blackgrass [2, 10] | Plant response rating, Foxtail, Giant [3, 11] | Plant response rating, Foxtail, Giant [3, 10] | Plant response rating, Cocklebur [4, 11] | Plant response rating, Cocklebur [4, 10] | Plant response rating, Lambsquarters [5, 10] | Plant response rating, Morningglory [6, 10] | Plant response rating, Pigweed [7, 10] | Plant response rating, Crabgrass [8, 11] | Plant response rating, Crabgrass [8, 10] | Plant response rating, Surinam grass [9, 11] | Plant response rating, Surinam grass [9, 10] | Plant response rating, Sunflower (Sunflower; Rate 62 g/ha) | Plant response rating, Velvetleaf [1, 11] | Plant response rating, Lambsquarters [5, 11] | Plant response rating, Morningglory [6, 11] | Plant response rating, Pigweed [7, 11] | Plant response rating, Sunflower (Sunflower; Rate 31 g/ha) | other results |
| --- | --- | --- | --- | --- | --- | --- | --- | --- | --- | --- | --- | --- | --- | --- | --- | --- | --- | --- | --- | --- | --- |
| CCC(CC)c1ccn(C2CCN(c3cccc(OC)c3)C2=O)n1 (centres unmarked) [Compound 96] | 10 | 0 | 0 | 0 | 40 | 10 | 20 | 90 | 50 | 90 | 20 | 70 | 0 | 0 | 0 | – | – | – | – | – | – |
| COC(=O)c1cccc(N2CCC(n3ccc(C(C)(C)C)n3)C2=O)c1 (centres unmarked) [Compound 73] | 70 | 0 | 0 | 20 | 50 | 20 | 90 | 70 | 20 | 90 | 0 | 50 | 0 | 0 | – | 50 | 0 | 20 | 20 | 40 | – |
| CC(C)OC(=O)c1cccc(N2CCC(n3ccc(C(C)(C)C)n3)C2=O)c1 (centres unmarked) [Compound 124] | – | – | – | – | – | – | 90 | – | – | – | – | – | – | 0 | 0 | – | – | – | – | 0 | Plant response rating, Velvetleaf [1, 12]: 0; Plant response rating, Blackgrass [2, 12]: 0; Plant response rating, Foxtail, Giant [3, 12]: 0; Plant response rating, Cocklebur [4, 12]: 20; Plant response rating, Lambsquarters [5, 12]: 20; Plant response rating, Morningglory [6, 12]: 0; Plant response rating, Pigweed [7, 12]: 0; Plant response rating, Crabgrass [8, 12]: 0; Plant response rating, Surinam grass [9, 12]: 0 |
| CCCC(C)c1ccn(C2CCN(c3cccc(OCC)c3)C2=O)n1 (centres unmarked) [Compound 129] | – | – | 0 | – | – | – | 30 | – | – | – | – | – | – | 0 | 0 | – | – | – | – | – | Plant response rating, Velvetleaf [1, 12]: 0; Plant response rating, Blackgrass [2, 12]: 0; Plant response rating, Foxtail, Giant [3, 12]: 0; Plant response rating, Cocklebur [4, 12]: 0; Plant response rating, Lambsquarters [5, 12]: 100; Plant response rating, Morningglory [6, 12]: 0; Plant response rating, Pigweed [7, 12]: 0; Plant response rating, Crabgrass [8, 12]: 0; Plant response rating, Surinam grass [9, 12]: 0 |
| CC(C)(C)c1ccn(C2CCN(c3cccc(OC(F)(F)F)c3)C2=O)n1 (centres unmarked) [Compound 49] | 40 | 0 | 60 | 0 | 0 | 0 | 30 | 50 | 30 | 30 | 0 | 40 | 0 | 90 | – | 0 | 30 | 0 | 30 | 0 | – |
| COc1cccc(N2CCC(n3ccc(C(C)(C)C)n3)C2=O)c1 (centres unmarked) [Compound 87] | 0 | 0 | 0 | 0 | 0 | 0 | 0 | 50 | 0 | 40 | 0 | 0 | 0 | 0 | 20 | 0 | 0 | 0 | 0 | – | – |
| CCC(C)c1ccn(C2CCN(c3cccc(OC)c3)C2=O)n1 (centres unmarked) [Compound 95] | 0 | 0 | 0 | 0 | 0 | 0 | 20 | 90 | 20 | 60 | 0 | 20 | 0 | 0 | 0 | – | – | – | – | – | – |
| CCCC(C)c1ccn(C2SCN(c3cccc(OC(F)(F)F)c3)C2=O)n1 (centres unmarked) [Compound 90] | 40 | 0 | 0 | 0 | 40 | 20 | 60 | 100 | 70 | 90 | 20 | 50 | 0 | 30 | 0 | – | – | – | – | 0 | – |
| CCCC(C)c1ccn(C2CCN(c3cccc(C(F)(F)F)c3)C2=O)n1 (centres unmarked) [Compound 100] | 0 | 0 | 0 | 0 | 0 | – | – | 80 | 0 | 0 | 0 | 0 | 0 | 0 | 0 | – | – | – | – | – | – |
| CCCC(C)c1ccn(C2CCN(c3cccc(OC)c3)C2=O)n1 (centres unmarked) [Compound 99] | 0 | 0 | 0 | 0 | 0 | – | – | 70 | 0 | 0 | 0 | 0 | 0 | 0 | 0 | – | – | – | – | – | – |

Source: US7138361B2, “Herbicidal heterocycles” (E. I. du Pont de Nemours and Company, priority 2000, dated 2006)
